This note sets out measurements from patent US8911952B2, “Method for integrin ligand discovery” (STC. UNM, priority 2010, dated 2014).

The test system of test [1] is hematopoietic stem and progenitor cells (HSPCs). Briefly: Mobilization of hematopoietic stem and progenitor cells into the peripheral blood. The settings on record: mouse; for CFU/ml in peripheral Blood / WBC count/ml × 10^6: intraperitoneal, one hour prior to blood collection, thioridazine hydrochloride 1.25 mg/kg, AMD3100 5 mg/kg, Mean ± S.E.
Test [2] has as its target T1, VLA-4 (Homo sapiens, UniProt P05556+P13612). Briefly: HUTS-21 antibody binding (ligand induced epitope exposure) on U937 cells. Type of test: cell-based. Also on record: host or cells: U937 (human histiocytic lymphoma); in part of the real-time experiments U937 stably transfected with a non-desensitizing FPR mutant, where VLA-4 itself is endogenous. As for the experimental part: U937 cells were suspended in the HEPES buffer (see above) 1×10^6 cells/ml, 100 μl aliquots (10^5 cells) were incubated with different concentrations of unlabeled compounds for 10 min. Next, 20 μl of PE-labeled HUTS-21 antibodies was added and cells were incubated for additional […] at room temperature. Next, cells were washed with 1 ml of HEPES buffer, resuspended in 300-500 μl of buffer and analyzed by flow cytometry (FL2 channel, BD FACScan). The data were plotted as mean channel fluorescence vs. the concentration of the compound. The data were fitted to a sigmoidal dose-response equation. To determine the level of nonspecific binding, cells were stained in parallel with the isotype control antibodies.

The next test concerns the target T2, LFA-1 (Homo sapiens, UniProt P05107+P20701).
T2 construct: host or cells: U937 (human histiocytic lymphoma)
The test can be described thus: Binding of MEM-148 mAbs to U937 cells (epitope exposure). Type of test: cell-based. The source says:
In order to confirm that similar results can be obtained with other integrins we have constructed a 3D model of αLβ2-integrin (LFA-1, CD11a/CD18). Amino acid residue critical for the binding of MEM-148 mAb to β2-integrin subunit (Pro 374) was highlighted as green space fill (1). This model was compared to the model of β1-integrin subunit, where critical residues (Ser370, Glu371, and Lys417) were highlighted in a similar way (2) (FIG. 8). It is worth noting that critical residues for both mAbs are positioned in a similar way on the inner side of the hybrid domain. Since the outward movement of the hybrid domain, induced by a ligand binding (at least for β1-integrin (2)), can be used to report occupancy of the ligand binding pocket (3), we decided to use MEM-148 mAbs to probe LFA-1 integrin conformation upon ligand binding.
To test this possibility, two αLβ2-integrin ligands were synthesized as described previously. Compound 3 (Genentech) and XVA143 (Roche) are shown to be LFA-1 specific antagonists (4) FIG. 9.

Test [3] has as its target T1, VLA-4. The test can be described thus: Detection of VLA-4 allosteric antagonists: HUTS-21 binding inhibition screen of the Prestwick Chemical Library.
Protocol: 5 μl RPMI was added to columns 2-24. Column 1 was left empty for flow cytometry data binning purposes. Test compounds in DMSO (Prestwick Chemical Library, PCL) were added and mixed (0.1 μl of 1 mM stock solution). […] Compounds were added to 320 wells (columns 3-22). […] Columns 23, 24 were used for the positive control (no test compounds added). Next, 5 μl aliquots of U937 cells were suspended in RPMI 1640 at 3×10^6 cells/ml, loaded in 384 well plates, and mixed (1×10^6 cells/ml final). Cells were incubated for 10 min at RT. This time is sufficient for the binding of a small molecule (˜1 kD) at 10 μM at RT. […] Plates were incubated for 1 hour at 37° C. According to the real-time kinetic studies this time was sufficient to reach equilibrium. Next, wells were sampled using the high throughput flow cytometry platform (HyperCyt) at UNMCMD.
After data acquisition by the flow cytometer (CyAn™ ADP), proprietary software was used to analyze the data files (IDLQuery, at UNMCMD, developed by Bruce Edwards). The data were exported into a Microsoft Excel spreadsheet template, and the value for antibody binding inhibition (%) was calculated for each well as follows: % Inhibition=100(1−((MCFtest−MCFneg.control)/MCFpos.control−MCFneg.control))), where, MCF is mean channel fluorescence of cells with test compounds, and positive or negative control wells.
For test [4], the target named is T1, VLA-4. The test can be described thus: Real-time binding of HUTS-21 antibodies to U937 cells. Type of test: cell-based. Set-up: host or cells: U937 (human histiocytic lymphoma); in part of the real-time experiments U937 stably transfected with a non-desensitizing FPR mutant, where VLA-4 itself is endogenous. The settings on record: 1 nM LDV in the absence of the compound. The protocol:
the Ability of a Flow Cytometer to Discriminate between free and bound fluorescent ligand in a homogeneous assay was used to determine the binding kinetics of mAbs in real-time (15; 26). Cells (10^6 cells/ml) were removed from ice and warmed in HEPES buffer containing 0.1% HSA for 10 min at 37° C. […] Screening hits at saturating concentration (10-30 μM final) or DMSO (vehicle) were added at point 0.

Test [5] addresses VLA-4 (very late antigen 4, CD49d/CD29, alpha4beta1 integrin) (human) (UniProt P13612). Briefly: flow cytometry on U937 cells, PE-HUTS-21 with rising LDV. Background: In flow cytometry, cells or beads pass a laser one at a time.

Where a name gives a salt, the structure may show the parent alone. Marks after values point to notes of the source that are not given here.

T1 sequence (P13612 34-1032): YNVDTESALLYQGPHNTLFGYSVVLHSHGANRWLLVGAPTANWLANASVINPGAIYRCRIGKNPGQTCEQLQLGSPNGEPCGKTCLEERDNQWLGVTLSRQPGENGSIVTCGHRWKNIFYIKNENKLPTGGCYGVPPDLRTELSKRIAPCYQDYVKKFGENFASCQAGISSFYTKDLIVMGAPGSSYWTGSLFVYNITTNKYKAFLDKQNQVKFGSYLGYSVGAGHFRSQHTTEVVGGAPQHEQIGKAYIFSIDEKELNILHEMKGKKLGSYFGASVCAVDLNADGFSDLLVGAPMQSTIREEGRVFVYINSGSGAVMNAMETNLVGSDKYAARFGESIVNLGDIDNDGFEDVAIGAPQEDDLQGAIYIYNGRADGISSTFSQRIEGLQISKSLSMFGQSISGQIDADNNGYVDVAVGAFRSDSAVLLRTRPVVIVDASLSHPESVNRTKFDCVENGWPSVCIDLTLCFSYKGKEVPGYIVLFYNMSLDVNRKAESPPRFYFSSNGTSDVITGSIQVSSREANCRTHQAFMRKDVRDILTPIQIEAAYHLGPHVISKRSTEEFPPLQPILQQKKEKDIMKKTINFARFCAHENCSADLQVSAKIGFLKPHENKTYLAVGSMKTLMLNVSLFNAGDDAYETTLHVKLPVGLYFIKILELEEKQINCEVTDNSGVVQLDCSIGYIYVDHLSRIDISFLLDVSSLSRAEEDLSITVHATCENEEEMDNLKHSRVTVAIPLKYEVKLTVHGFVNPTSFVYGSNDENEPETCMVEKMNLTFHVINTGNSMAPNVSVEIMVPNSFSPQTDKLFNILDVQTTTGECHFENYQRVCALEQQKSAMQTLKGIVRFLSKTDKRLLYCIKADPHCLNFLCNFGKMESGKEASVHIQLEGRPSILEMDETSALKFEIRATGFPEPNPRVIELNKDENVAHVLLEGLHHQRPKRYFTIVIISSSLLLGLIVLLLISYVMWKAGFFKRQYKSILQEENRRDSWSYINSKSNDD
T1 sequence (P05556 21-798): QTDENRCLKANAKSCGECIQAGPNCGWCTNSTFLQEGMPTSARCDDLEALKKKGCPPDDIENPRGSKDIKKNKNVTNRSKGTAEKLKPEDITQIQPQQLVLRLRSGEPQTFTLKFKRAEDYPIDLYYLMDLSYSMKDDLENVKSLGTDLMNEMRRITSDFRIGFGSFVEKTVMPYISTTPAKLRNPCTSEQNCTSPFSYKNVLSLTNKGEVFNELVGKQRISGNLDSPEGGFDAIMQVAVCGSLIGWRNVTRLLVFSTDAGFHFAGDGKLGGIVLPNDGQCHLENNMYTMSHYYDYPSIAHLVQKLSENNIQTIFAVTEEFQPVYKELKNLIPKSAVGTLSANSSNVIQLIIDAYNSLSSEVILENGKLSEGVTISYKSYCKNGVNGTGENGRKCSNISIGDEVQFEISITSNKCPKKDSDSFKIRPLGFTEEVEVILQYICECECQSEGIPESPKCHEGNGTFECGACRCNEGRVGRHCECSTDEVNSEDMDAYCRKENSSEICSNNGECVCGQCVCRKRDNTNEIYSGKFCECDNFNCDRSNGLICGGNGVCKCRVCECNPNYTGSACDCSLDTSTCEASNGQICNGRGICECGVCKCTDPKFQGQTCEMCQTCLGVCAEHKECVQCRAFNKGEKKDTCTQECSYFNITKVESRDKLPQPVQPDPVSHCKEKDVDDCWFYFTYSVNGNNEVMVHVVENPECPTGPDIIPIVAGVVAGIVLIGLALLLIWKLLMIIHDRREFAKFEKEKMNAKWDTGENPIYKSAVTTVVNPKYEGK
T2 sequence (P20701 26-1170): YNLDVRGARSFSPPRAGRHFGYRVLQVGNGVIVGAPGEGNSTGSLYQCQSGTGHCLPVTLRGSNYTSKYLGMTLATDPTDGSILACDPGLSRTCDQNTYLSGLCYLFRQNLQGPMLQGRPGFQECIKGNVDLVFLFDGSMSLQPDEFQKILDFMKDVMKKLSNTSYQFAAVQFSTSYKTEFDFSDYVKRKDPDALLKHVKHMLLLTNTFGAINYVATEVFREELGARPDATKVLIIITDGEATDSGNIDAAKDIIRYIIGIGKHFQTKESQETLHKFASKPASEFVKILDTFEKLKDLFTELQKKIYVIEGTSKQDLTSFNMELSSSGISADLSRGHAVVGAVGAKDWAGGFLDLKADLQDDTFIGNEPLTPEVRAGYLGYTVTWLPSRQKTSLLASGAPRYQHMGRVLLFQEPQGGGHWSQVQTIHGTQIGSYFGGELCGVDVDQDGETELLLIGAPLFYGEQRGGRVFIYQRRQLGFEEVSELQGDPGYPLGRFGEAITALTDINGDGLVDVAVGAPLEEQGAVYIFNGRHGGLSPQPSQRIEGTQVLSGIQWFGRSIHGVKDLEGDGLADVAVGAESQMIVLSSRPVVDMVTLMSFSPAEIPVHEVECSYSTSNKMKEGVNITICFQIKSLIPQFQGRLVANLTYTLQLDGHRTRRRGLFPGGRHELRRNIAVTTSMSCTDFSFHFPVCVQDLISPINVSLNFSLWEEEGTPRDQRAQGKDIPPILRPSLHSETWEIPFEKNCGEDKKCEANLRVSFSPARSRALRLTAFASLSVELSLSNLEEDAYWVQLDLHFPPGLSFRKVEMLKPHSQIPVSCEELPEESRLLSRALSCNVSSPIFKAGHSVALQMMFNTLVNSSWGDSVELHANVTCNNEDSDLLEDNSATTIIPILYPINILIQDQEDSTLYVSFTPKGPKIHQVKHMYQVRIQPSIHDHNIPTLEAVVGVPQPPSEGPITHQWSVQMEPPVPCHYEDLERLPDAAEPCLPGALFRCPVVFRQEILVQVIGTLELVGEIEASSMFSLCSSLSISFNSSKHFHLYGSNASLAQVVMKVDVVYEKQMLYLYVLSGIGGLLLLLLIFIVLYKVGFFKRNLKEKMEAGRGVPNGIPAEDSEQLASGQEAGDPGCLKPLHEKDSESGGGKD
T2 sequence (P05107 23-769): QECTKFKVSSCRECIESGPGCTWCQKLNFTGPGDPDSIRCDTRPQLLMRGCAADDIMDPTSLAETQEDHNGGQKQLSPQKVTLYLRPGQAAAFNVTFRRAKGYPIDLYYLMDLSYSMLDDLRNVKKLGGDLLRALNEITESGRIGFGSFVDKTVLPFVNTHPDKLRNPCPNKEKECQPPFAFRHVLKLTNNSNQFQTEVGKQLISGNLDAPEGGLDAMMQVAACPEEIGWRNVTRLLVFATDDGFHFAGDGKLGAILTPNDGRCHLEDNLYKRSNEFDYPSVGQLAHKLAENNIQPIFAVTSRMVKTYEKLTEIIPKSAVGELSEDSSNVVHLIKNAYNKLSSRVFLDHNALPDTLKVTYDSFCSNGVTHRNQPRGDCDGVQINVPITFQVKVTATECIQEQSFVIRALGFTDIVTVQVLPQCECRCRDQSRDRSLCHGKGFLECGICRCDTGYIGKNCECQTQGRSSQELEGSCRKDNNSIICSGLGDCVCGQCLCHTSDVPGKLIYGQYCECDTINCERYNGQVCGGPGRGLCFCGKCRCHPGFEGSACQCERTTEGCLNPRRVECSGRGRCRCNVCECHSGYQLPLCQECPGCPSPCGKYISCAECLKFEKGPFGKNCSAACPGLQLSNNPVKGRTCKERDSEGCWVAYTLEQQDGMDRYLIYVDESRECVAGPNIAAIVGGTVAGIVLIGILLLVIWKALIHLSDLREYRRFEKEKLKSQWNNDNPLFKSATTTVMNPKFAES
VLA-4 (very late antigen 4, CD49d/CD29, alpha4beta1 integrin) (human), sequence (P13612 34-1032, chain 1 of 2): as the sequence (P13612 34-1032) above
VLA-4 (very late antigen 4, CD49d/CD29, alpha4beta1 integrin) (human), sequence (P05556 21-798, chain 2 of 2, further chain): as the sequence (P05556 21-798) above

In test [1] (AMD3100 5 mg/kg intraperitoneal, versus vehicle), `c1cc(CN2CCCNCCNCCCNCC2)ccc1CN1CCCNCCNCCCNCC1` [AMD3100, AMD3100 octahydrochloride] had a WBC count increase of about 2.1 fold. Also, in test [1], the “CFU/ml in peripheral Blood” value is recorded as 511.8 ± 78.8^a CFU/ml and the “WBC count/ml × 10^6” value was 7.8 ± 0.7^b count/ml × 10^6.
Turning to `COc1cccc(OC)c1-c1ccc(C[C@H](NC(=O)c2c(Cl)cccc2Cl)C(=O)O)cc1` [TR14035, N-(2,6-dichlorobenzoyl)-(L)-4-(2′,6′-bis-methoxyphenyl)phenylalanine], on VLA-4 [2], the “LIBS (HUTS-21 epitope) exposure” value is “resulted in the LIBS exposure”.
Regarding `CSc1ccc2c(c1)N(CCC1CCCCN1C)c1ccccc1S2` (stereo not drawn) [Thioridazine, Thioridazine hydrochloride], in test [1], the “CFU/ml in peripheral Blood” value came out at 216.8 ± 42.1 CFU/ml and the “WBC count/ml × 10^6” value stood at 3.0 ± 0.3 count/ml × 10^6.
Regarding `O=C(NCc1cccc(O)c1)c1cc(Cl)c(C(=O)N[C@@H](CNC(=O)c2cc(O)cc(O)c2)C(=O)O)c(Cl)c1` [XVA143], the “exposure of MEM-148 epitope” value at LFA-1 is on record as “induced exposure of MEM-148 epitope”.
With `O=C(CCCN1CCC(O)(c2ccc(Cl)cc2)CC1)c1ccc(F)cc1` [haloperidol], the “antagonistic activity in the HUTS-21 based screen” value at VLA-4 [3] is reported as “did not show any antagonistic activity”.
Same read-out and setting: for `CCN(CC)CCNC(=O)c1cc(Cl)c(N)cc1OC` [metoclopramide] the value was “did not show any antagonistic activity”.
Take `OCCN1CCN(CCCN2c3ccccc3Sc3ccc(Cl)cc32)CC1` [perphenazine]: on VLA-4 [4], the “LDV concentration required to induce HUTS-21 binding in the presence of the compound” value turned out to be 0.1 µM.
On to `CCN1CCCC1CNC(=O)c1cc(S(N)(=O)=O)ccc1OC` (stereo not drawn) [sulpiride], for which, on VLA-4 [3], the “antagonistic activity in the HUTS-21 based screen” value is on record as “did not show any antagonistic activity”.
In the case of “Mouse anti-human CD29, HUTS-21 (PE) (antibody)”, in test [5], the signal to background ratio is 10.
